PubChem BioAssay AID248 (DTP/NCI, 2004)
Where “and” joins values, the source holds several entries; their conditions need not be identical. Identical values can stand only once. Toxic doses and inconclusive results are not listed. Rule as the data show it: active = T/C of 150% or more; inactive = T/C below 125%.

Tested on: L1210 leukemia ip in BDF1 mice, survival T/C
Experiment: NCI In Vivo Anticancer Drug Screen. Data for tumor model L1210 Leukemia (intraperitoneal) in B6D2F1 (BDF1) mice
Conditions: endpoint: mean survival time, higher = longer survival
Procedure, shortened: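 Ratio derived from survival: compound-dosed mice over vehicle-dosed mice, all bearing a transplantable tumor.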

[1] = dose: 100.0 mg/kg/injection, schedule: Q04DX002 (ip), vehicle: saline with Tween-80
[2] = dose: 200.0 mg/kg/injection, schedule: Q04DX002 (ip), vehicle: saline with Tween-80
[3] = dose: 100.0 mg/kg/injection, schedule: Q01DX001 (ip), vehicle: saline
[4] = dose: 200.0 mg/kg/injection, schedule: Q01DX001 (ip), vehicle: saline
[5] = dose: 400.0 mg/kg/injection, schedule: Q01DX001 (ip), vehicle: saline
[6] = dose: 50.0 mg/kg/injection, schedule: Q04DX003 (ip), vehicle: saline
[7] = dose: 100.0 mg/kg/injection, schedule: Q04DX003 (ip), vehicle: saline
[8] = dose: 200.0 mg/kg/injection, schedule: Q04DX003 (ip), vehicle: saline
[9] = dose: 400.0 mg/kg/injection, schedule: Q04DX003 (ip), vehicle: saline
[10] = dose: 75.0 mg/kg/injection, schedule: Q01DX001 (ip), vehicle: saline
[11] = dose: 100.0 mg/kg/injection, schedule: Q04DX002 (ip), vehicle: Klucel (hydroxypropylcellulose) (HPC)
[12] = dose: 200.0 mg/kg/injection, schedule: Q04DX002 (ip), vehicle: Klucel (hydroxypropylcellulose) (HPC)
[13] = dose: 400.0 mg/kg/injection, schedule: Q04DX002 (ip), vehicle: Klucel (hydroxypropylcellulose) (HPC)
[14] = dose: 100.0 mg/kg/injection, schedule: Q01DX001 (ip), vehicle: Klucel (hydroxypropylcellulose) (HPC)
[15] = dose: 200.0 mg/kg/injection, schedule: Q01DX001 (ip), vehicle: Klucel (hydroxypropylcellulose) (HPC)
[16] = dose: 400.0 mg/kg/injection, schedule: Q01DX001 (ip), vehicle: Klucel (hydroxypropylcellulose) (HPC)
[17] = dose: 100.0 mg/kg/injection, schedule: Q01DX009 (ip), vehicle: saline
[18] = dose: 200.0 mg/kg/injection, schedule: Q01DX009 (ip), vehicle: saline
[19] = dose: 400.0 mg/kg/injection, schedule: Q01DX009 (ip), vehicle: saline
[20] = dose: 50.0 mg/kg/injection, schedule: Q01DX009 (ip), vehicle: saline with Tween-80
[21] = dose: 100.0 mg/kg/injection, schedule: Q01DX009 (ip), vehicle: saline with Tween-80
[22] = dose: 200.0 mg/kg/injection, schedule: Q01DX009 (ip), vehicle: saline with Tween-80
[23] = dose: 100.0 mg/kg/injection, schedule: Q04DX003 (ip), vehicle: Klucel (hydroxypropylcellulose) (HPC)
[24] = dose: 200.0 mg/kg/injection, schedule: Q04DX003 (ip), vehicle: Klucel (hydroxypropylcellulose) (HPC)
[25] = dose: 100.0 mg/kg/injection, schedule: Q04DX002 (ip), vehicle: saline
[26] = dose: 200.0 mg/kg/injection, schedule: Q04DX002 (ip), vehicle: saline
[27] = dose: 400.0 mg/kg/injection, schedule: Q04DX002 (ip), vehicle: saline
[28] = dose: 400.0 mg/kg/injection, schedule: Q04DX002 (ip), vehicle: saline with Tween-80

Measured: T/C

Cc1ccc(Cl)cc1NC(=S)N(C)C
inactive: [1] 98 % of control | [2] 98 % of control

O=C(O)C1c2ccccc2-c2ccccc21
inactive: [3] 113 % of control | [4] 91 % of control | [5] 101 % of control

CCC1(c2ccccc2)C(=O)NC(=S)N(C)C1=O (stereo unspecified)
inactive: dose: 75.0 mg/kg/injection, schedule: Q01DX001 (ip), vehicle: other 95 % of control | dose: 150.0 mg/kg/injection, schedule: Q01DX001 (ip), vehicle: other 96 % of control

N#CCCP(=O)(CCC#N)CCC#N
inactive: [6] 98 % of control | [7] 98 % of control | [8] 101 % of control | [9] 101 % of control

CC(C)(C)C1SCC(=NNc2ccc([N+](=O)[O-])cc2[N+](=O)[O-])CS1 (stereo unspecified)
inactive: dose: 12.5 mg/kg/injection, schedule: Q04DX002 (ip), vehicle: gum acacia 95 % of control | dose: 25.0 mg/kg/injection, schedule: Q04DX002 (ip), vehicle: gum acacia 98 % of control | dose: 50.0 mg/kg/injection, schedule: Q04DX002 (ip), vehicle: gum acacia 95 % of control

Cc1cc([P+](c2ccccc2)(c2ccccc2)c2ccccc2)c(C)cc1[P+](c1ccccc1)(c1ccccc1)c1ccccc1
inactive: dose: 0.37 mg/kg/injection, schedule: Q04DX003 (ip), vehicle: Klucel (hydroxypropylcellulose) (HPC) 96 % of control | dose: 0.75 mg/kg/injection, schedule: Q04DX003 (ip), vehicle: Klucel (hydroxypropylcellulose) (HPC) 106 % of control | dose: 1.5 mg/kg/injection, schedule: Q04DX003 (ip), vehicle: Klucel (hydroxypropylcellulose) (HPC) 93 % of control | dose: 3.0 mg/kg/injection, schedule: Q04DX003 (ip), vehicle: Klucel (hydroxypropylcellulose) (HPC) 91 % of control

CCCCCCCCCCCCOC(=N)N1CCCC1
inactive: dose: 8.8 mg/kg/injection, schedule: Q01DX Z (ip), vehicle: saline 96 % of control | dose: 13.3 mg/kg/injection, schedule: Q01DX Z (ip), vehicle: saline 102 % of control | dose: 20.0 mg/kg/injection, schedule: Q01DX Z (ip), vehicle: saline 100 % of control

Cc1cc(N(CCO)Cc2ccccc2)nc2ccccc12
inactive: [10] 102 % of control

O=C(COc1ccc(F)cc1Cl)OCCOCCO
inactive: [11] 106 % of control | [12] 95 % of control | [13] 106 % of control

NC(CO)C(O)c1ccc(-c2ccccc2)cc1 (stereo unspecified)
inactive: dose: 75.0 mg/kg/injection, schedule: Q04DX003 (ip), vehicle: Klucel (hydroxypropylcellulose) (HPC) 108 % of control | [14] 94 % of control | dose: 150.0 mg/kg/injection, schedule: Q04DX003 (ip), vehicle: Klucel (hydroxypropylcellulose) (HPC) 106 % of control | [15] 92 % of control | dose: 300.0 mg/kg/injection, schedule: Q04DX003 (ip), vehicle: Klucel (hydroxypropylcellulose) (HPC) 101 % of control | [16] 92 % of control

CC1CCC(C)(C)C1=O (stereo unspecified)
inactive: [17] 106 % of control | [18] 96 % of control | [19] 98 % of control

CCOC(=O)NN(C(=O)OCC)c1c(N)nc(N)[nH]c1=O
inactive: [14] 92 % of control | [15] 101 % of control | [16] 92 % of control

CSCCC(NC(=O)CN)C(=O)O (stereo unspecified)
inactive: [3] 96 % of control | [4] 104 % of control | [5] 102 % of control

CC(C)(O)c1cccc(F)c1
inactive: [20] 90 % of control | [21] 93 % of control | [22] 121 % of control

c1cc2c(cc1C1SCSCS1)OCO2
inactive: dose: 100.0 mg/kg/injection, schedule: Q01DX009 (ip), vehicle: Klucel (hydroxypropylcellulose) (HPC) 98 % of control | [23] 96 % of control | dose: 200.0 mg/kg/injection, schedule: Q01DX009 (ip), vehicle: Klucel (hydroxypropylcellulose) (HPC) 92 % of control | [24] 98 % of control | dose: 400.0 mg/kg/injection, schedule: Q01DX009 (ip), vehicle: Klucel (hydroxypropylcellulose) (HPC) 90 % of control | dose: 400.0 mg/kg/injection, schedule: Q04DX003 (ip), vehicle: Klucel (hydroxypropylcellulose) (HPC) 98 % of control

CCN(CC)C(=O)C1CC=CCC1 (stereo unspecified)
inactive: [25] 96 % of control | [26] 107 % of control | [27] 93 % of control

CCCC[As](=O)(O)CC(C)C
inactive: dose: 6.25 mg/kg/injection, schedule: Q01DX009 (ip), vehicle: saline 93 % of control | dose: 12.5 mg/kg/injection, schedule: Q01DX009 (ip), vehicle: saline 101 % of control

COCn1c(C(=O)c2ccc(OC)cc2)cc2ccccc21
inactive: [11] 102 % of control | [12] 95 % of control | [13] 98 % of control

CCCCOC(=O)C(C)(O)C(Cl)c1ccccc1 (stereo unspecified)
inactive: [25] 100 % of control | [26] 95 % of control | [27] 91 % of control

O=C(O)c1cc([N+](=O)[O-])ccc1P(=O)(O)O
inactive: [10] 93 % of control | dose: 150.0 mg/kg/injection, schedule: Q01DX001 (ip), vehicle: saline 95 % of control

COc1n[n+]([O-])c(Cl)c(C)c1[N+](=O)[O-]
inactive: [1] 105 % of control | [2] 102 % of control | [28] 96 % of control

CNC(=O)Nc1ccc(Cl)cn1
inactive: dose: 25.0 mg/kg/injection, schedule: Q01DX009 (ip), vehicle: saline with Tween-80 100 % of control | [20] 97 % of control | [21] 98 % of control and 103 % of control

COc1ccc(O)c2c1C(=O)c1ccccc1C2=O
inactive: dose: 25.0 mg/kg/injection, schedule: Q01DX009 (ip), vehicle: other 93 % of control | dose: 50.0 mg/kg/injection, schedule: Q01DX009 (ip), vehicle: other 95 % of control | dose: 100.0 mg/kg/injection, schedule: Q01DX009 (ip), vehicle: other 104 % of control | dose: 200.0 mg/kg/injection, schedule: Q01DX009 (ip), vehicle: other 102 % of control | dose: 400.0 mg/kg/injection, schedule: Q01DX009 (ip), vehicle: other 104 % of control

CCC[N+](C)(C)CCCOC(=O)C1C2CC3OC(=O)C1C3C2 (stereo unspecified)
inactive: dose: 12.5 mg/kg/injection, schedule: Q04DX003 (ip), vehicle: saline 106 % of control | dose: 25.0 mg/kg/injection, schedule: Q04DX003 (ip), vehicle: saline 100 % of control | [6] 100 % of control | [7] 97 % of control | [8] 91 % of control

O=[N+]([O-])C12CCCCC1([N+](=O)[O-])CCCC2 (stereo unspecified)
inactive: [7] 103 % of control | [8] 92 % of control | [9] 108 % of control

COc1ccc2c(n1)Sc1c(Cl)nc(N)nc1N2
inactive: [14] 97 % of control | [15] 97 % of control | [16] 98 % of control

C=CCOCCO
inactive: [17] 108 % of control | [7] 100 % of control | [18] 108 % of control | [8] 95 % of control | [19] 101 % of control | [9] 100 % of control

Cc1ccc(S(=O)(=O)N(c2cc([N+](=O)[O-])ccc2Br)S(=O)(=O)c2ccc(C)cc2)cc1
inactive: [1] 88 % of control | [2] 98 % of control | [28] 88 % of control

CC(C)c1cc(CN(C)C)cc(C(C)C)c1O
inactive: [23] 95 % of control | [24] 102 % of control

CCCCCCC(C)O[Si](C)c1ccccc1C (stereo unspecified)
inactive: [21] 98 % of control | dose: 100.0 mg/kg/injection, schedule: Q04DX003 (ip), vehicle: saline with Tween-80 98 % of control | [22] 100 % of control | dose: 200.0 mg/kg/injection, schedule: Q04DX003 (ip), vehicle: saline with Tween-80 98 % of control | dose: 400.0 mg/kg/injection, schedule: Q01DX009 (ip), vehicle: saline with Tween-80 111 % of control | dose: 400.0 mg/kg/injection, schedule: Q04DX003 (ip), vehicle: saline with Tween-80 98 % of control
